In patent publication US12116635B2, “Methods for detecting and treating cancers having adenosine pathway activation” (Corvus Pharmaceuticals, Inc., priority 2018, dated 2024):
“Also recorded” adds a separate entry of the source.

Key:
advanced cancers = assay: Ongoing phase 1/1b trial in patients with advanced cancers; assay type: in vivo, human; conditions: as a monotherapy and in combination with atezolizumab
Text: “Adenosine receptor antagonist” refers to a molecule that inhibits activity of adenosine receptors (e.g. A2A or A2B receptors), typically through direct action. Adenosine receptors antagonists can be small or large molecule antagonists. In embodiments, CPI-444 is an example A2A receptor antagonist. […] CPI-444 is described, for example, in PCT Patent Publication No. WO 2017/112917; each of which is incorporated herein by reference in its entirety.

PBMCs = assay: CXCL5 protein ELISA in culture supernatants of PBMCs treated with NECA +/- CPI-444; assay type: cell-based, human
Procedure: Expression of CXCL5 was determined by ELISA 2 days after activation.
FIGS. 2B and 2C show the response of PBMCs from two different donors to NECA+/−CPI-444 treatment. DMSO was used as vehicle control. […] This control helps establish that the induction of CXCL5 is specific to signaling through adenosine receptors.
NECA activation of CXCL5 protein expression was evaluated. PBMCs were harvested from two different human donors. […] CPI-444 (Corvus Pharmaceuticals) is an antagonist of the adenosine A2A receptor. CXCL5 protein in the culture supernatants was evaluated by ELISA two days after activation. CXCL5 expression is activated by NECA. […] This establishes that the induction of CXCL5 is specific to signaling through adenosine receptors.

A2AR = assay: In vitro A2AR stimulation gene signature +/- CPI-444 (transcript and protein); assay type: cell-based, human; conditions: at the transcript and protein level
Procedure: RNA purified from normal, healthy human peripheral blood mononuclear cells (PBMCs) treated with 5′-N-ethylcarboxamidoadenosine (NECA) and activated with anti-CD3/CD28 antibody were analyzed by NanoString hybridization-based quantification (NanoString Technologies, Inc.). […] Each dot represents the expression level of a specific gene. Dot shade represents the concentration of NECA used and/or different PBMC donors. […] Increases in monocyte/macrophage inflammatory mediators such as IL-1b and CCL2, 3, 7, 8, 20 were also observed, as were increases in SERPINB2, S100A8, PTGS2, THBS1. Expression of CXCL10 and GZMB were decreased, consistent with a suppressed IFNg response. […] A2AR agonists induce a specific gene signature (increase in a certain subset of genes and/or decrease in a second subset of genes) dominated by immunosuppressive mediators of MDSC and monocyte/macrophage biology. Inhibition of these genes by CPI-444 are observed. These gene signatures may be used as biomarkers for patient selection.

[1] = test system: human peripheral blood mononuclear cells (PBMCs); assay: NanoString quantification of mRNA in NECA-treated, anti-CD3/CD28-activated PBMCs; assay type: cell-based; conditions: 0.1 μM, 1 μM, and/or 10 μM NECA vs vehicle-treated control
Procedure: (§1) RNA purified from normal, healthy human peripheral blood mononuclear cells (PBMCs) treated with 5′-N-ethylcarboxamidoadenosine (NECA) and activated with anti-CD3/CD28 antibody were analyzed by NanoString hybridization-based quantification (NanoString Technologies, Inc.). […] Each dot represents the expression level of a specific gene. Dot shade represents the concentration of NECA used and/or different PBMC donors.

[2] = test system: human peripheral blood mononuclear cells (PBMCs); assay: RNA sequencing (RNA-Seq) of NECA-treated PBMCs; assay type: cell-based
Procedure: as §1, with “donors. […] Data were confirmed by RNA sequencing (RNA-Seq).” for “donors.”

## Cc1ccc(-c2nc(N)nc3c2nnn3Cc2cccc(CO[C@H]3CCOC3)n2)o1 [CPI-444, (S)-7-(5-methylfuran-2-yl)-3-((6-(((tetrahydrofuran-3-yl)oxy)methyl)pyridin-2-yl)methyl)-3H-[1,2,3]triazolo[4,5-d]pyrimidin-5-amine]
Advanced cancers
  anti-tumor activity: demonstrated anti-tumor activity
PBMCs; PBMCs treated with NECA, followed by CPI-444, then anti-CD3/CD28, ELISA two days after activation
  Blocking of NECA-induced CXCL5 protein expression: can be blocked
A2AR
  Inhibition of A2AR-stimulation-induced gene expression changes: inhibited these changes

## CCNC(=O)[C@H]1O[C@@H](n2cnc3c(N)ncnc32)[C@H](O)[C@@H]1O [NECA, 5′-N-ethylcarboxamidoadenosine]
[1]
  logFC CD14: 0.4485
  logFC CD86: 0.3148
  logFC CLEC5A: 0.3833
  logFC CXCL1: 0.6909
  logFC CXCL2: 1.093
  logFC CXCL3: 1.101
  logFC CXCL5: 1.338
  logFC CXCL6: 0.6535
  logFC IL1A: 0.6367
  logFC IL1B: 0.6345
  logFC IL6: 0.7014
  logFC IL8: 0.6411
  logFC IL23A: 0.4628
  logFC IL24: 0.5768
  logFC PLAUR: 0.5031
  logFC PPBP: 0.683
  logFC PTGS2: 0.6892
  logFC SLC11A1: 0.7022
  logFC TBX21: −0.1238
  logFC THBS1: 0.8703
[2]; Control (DMSO) vs 0.1 μm NECA
  logFC CCL24: −1.068
  logFC CD93: 0.9975
  logFC CSF3: 1.603
  logFC CXCL2: 1.452
  logFC CXCL3: 1.694
  logFC CXCL5: 2.388
  logFC EHF: −0.2753
  logFC EML6: 0.2117
  logFC EPB41L3: 1.183
  logFC FUT7: −0.2135
  logFC HAS1: 2.059
  logFC IL23A: 0.7971
  logFC INHBA: 0.5196
  logFC KLC4: 0.216
  logFC LAYN: 0.4228
  logFC MRPL11: −0.19
  logFC MS4A7: 0.9319
  logFC NPR1: 0.7892
  logFC OST4: 0.2352
  logFC PADI2: 0.4802
  logFC PTGS2: 1.184
  logFC SLC7A7: 0.5935
  logFC SPON1: 0.3611
  logFC ST6GALNAC2: 0.5342
  logFC SYTL3: 0.2894
  logFC WDR83OS: −0.2872
  logFC ZBTB18: 0.2431
[2]; Control (DMSO) vs 1 μm NECA
  logFC CCDC60: 0.07658
  logFC CD93: 1.454
  logFC CSF3: 2.802
  logFC CXCL2: 2.361
  logFC CXCL3: 2.573
  logFC CXCL5: 3.451
  logFC EHF: −0.2522
  logFC EMR3: 1.364
  logFC EPB41L3: 1.854
  logFC EREG: 1.89
  logFC FUT7: −0.4158
  logFC GPR157: 0.9283
  logFC HAS1: 3.238
  logFC IL23A: 1.363
  logFC IL24: 2.876
  logFC INHBA: 0.9638
  logFC LAYN: 0.5277
  logFC MS4A7: 1.535
  logFC OST4: −0.1747
  logFC PADI2: 0.7173
  logFC PID1: 1.729
  logFC PTGS2: 2.23
  logFC SLC7A7: 0.9514
  logFC SPON1: 0.5667
  logFC ST6GALNAC2: 0.8306
  logFC TGIF1: 0.4769
  logFC ZBTB18: 0.3385
[2]; Control (DMSO) vs 10 μm NECA
  logFC CCNE1: −0.4518
  logFC CD93: 1.895
  logFC CD300E: 1.71
  logFC CSF3: 3.508
  logFC CXCL2: 3.011
  logFC CXCL3: 3.106
  logFC CXCL5: 3.354
  logFC DENA5: 0.6559
  logFC ECEL1: 0.6918
  logFC EPB41L3: 2
  logFC GALM: −0.3189
  logFC GBP6: −0.8039
  logFC GPR157: 1.139
  logFC HAS1: 3.807
  logFC IL5: −0.6885
  logFC IL23A: 1.332
  logFC INHBA: 1.192
  logFC LAP3: −0.4286
  logFC LOC100505585: 0.6639
  logFC NID1: 1.087
  logFC PADI2: 0.9386
  logFC PID1: 2.124
  logFC PTGS2: 2.349
  logFC RHCG: 0.5767
  logFC SLC7A7: 0.9134
  logFC SPON1: 0.568
  logFC ST6GALNAC2: 0.876
PBMCs; PBMCs from two human donors, anti-CD3/CD28 activated, two days after activation, vs DMSO
  CXCL5 protein in the culture supernatants (ELISA): activated; also recorded: dose-dependent increase in CXCL5
